Measured values: US6025365A, “Chelerythrine and radiation combined tumor therapy” (Arch Development Corp., priority 1997, dated 2000)

Tests used:
SQ20-B cells = test: Clonogenic survival / colony formation assay; format: cell-based, human
Protocol: FIG. 2. Chelerythrine chloride enhanced IR-mediated cell killing through divisional death. Clonogenic survival was measured following exposure to increasing concentrations of chelerythrine and ionizing radiation. Cells were plated at cell numbers between about 500 cells/plate and about 2000 cells/plate and treated with 0 μM, 0.5 μM, or 1.0 μM chelerythrine chloride for 30 minutes prior to irradiation. After 2 weeks the colonies were scored for survival if they were composed of more than 50 cells. Results represent the mean of three individual experiments with duplicate or triplicate determinants. Error bars represent +/- the standard error of the means (SEM).
FIG. 5C. […] Closed circles represent radiation alone; closed squares represenet addition of 20 μM C2-Ceramide 30 minutes prior to x-ray.
Exponentially growing SQ20B cultures were trypsinized using 0.05% trypsin+0.02% EDTA. Cells (100 to 50,000) were plated in 100 mm tissue culture dishes. Chelerythrine or C2-ceramide was added 4 hours after plating and irradiated for 30 minutes after the addition of chelerythrine or C2-ceramide. The cells were irradiated using a GE Maxitron 250 x-ray generator operating at 250 kV and 26 mA with a dose rate of 114 cGy/min. After 12 days the cells were fixed and stained with crystal violet following standard procedures (Chmura et al., 1996a; 1996b). Colonies of >50 cells were scored as survivors.
Clonogenic survival was measured following increasing concentrations of chelerythrine chloride alone (0.5-1.5 μM), IR alone (1-9 Gy), or the combined treatment of cells with chelerythrine and IR. […] At a concentration of 500 nM, chelerythrine decreased cell survival to about 80% of untreated control cells (about 20% cell death). The combined treatment of cells with 500 nM of chelerythrine 30 minutes prior to treatment with 3 Gy of radiation decreased cell survival to about 30% of untreated cells (about 70% cell death). […] Cell shrinkage and nuclear condensation, characteristic of apoptosis, were not observed at these concentrations of chelerythrine and IR.

SQ-20B xenografts = test: Growth of SQ-20B tumor xenografts in nude mice; format: in vivo, nude mice (human tumor xenograft)
Protocol: FIG. 6. The SQ-20B xenograft system was used to assess the therapeutic efficacy of the combined treatment modality over 30 days. Forty animals (n=40) were treated in each group and the % mean tumor growth was determined for all animals. Calipers were used to measure tumor growth.
SQ-20B (1-5×10^6) tumor cells were injected into the right hind limbs of nude mice (Fredrick Cancer Research Institute). Xenografts were grown for 2-3 weeks to a mean tumor volume of […]. At day 0, initial tumor volume was determined by direct measurement with calipers. During treatment tumor volumes were measured with calipers twice weekly and represented as percent of original tumor volume. Tumor volumes were calculated by the formula (a×b×c/2) which was derived from that for an ellipsoid (d3/6). Tumor cure was defined as regression to a volume of <10% of original size since, at this volume, it is impossible to differentiate residual tumor from scar tissue. Xenografts were injected with 2 mg/kg chelerythrine chloride on days 0, 3, 7 and 10. Irradiated mice were immobilized in lucite chambers and the entire body was shielded with lead except for the tumor bearing hind limb 14. Tumors were irradiated (5 Gy/day, 4 days/week) to a total dose of 50 Gy using a Maxitron generator (1.88 Gy/min.). Tumors were treated with radiation alone, chelerythrine alone, and buffer or chelerythrine combined with radiation. Data were calculated as the percent of original (day 0) tumor volume and graphed as fractional tumor volume±SEM.
Radiation was delivered at 5 Gy/day, 4 days per week, for a total of 50 Gy.

WEHI-231 cells = test: Sphingomyelin mass by lipid extraction / TLC; format: cell-based, murine; conditions: 10 μM chelerythrine, 60 minutes
Protocol: FIG. 7A. Inhibition of PKC causes an increase in ceramide production through the activation of a neutral sphingomyelinase and decreases in sphingomyelin levels. Ceramide production was quantitated using the DAG kinase assay for WEHI-231 JM cells and total lipid extraction was used to assay sphingomyelin mass. Following addition of 10 μM chelerythrine, cells were lysed at the appropriate time points as described herein. Each data point represents the average percentage change in ceramide or sphingomyelin generation from baseline derived from at least 8 independent studies for all time points with the exception of those marked with * (n=4). Standard deviations depicted by error bars.
FIG. 7B. […] Ceramide production and sphingomyelin mass was quantitated identical to that for chelerythrine. Cells were lysed 2 hours following the addition of 250 nM calphostin C. […]
Cells were prelabeled with [^3 H] palmitate (10 μCi/ml) for 24 hours to isotopic equilibrium in 15 ml glass tubes to minimize changes in cellular ceramide and sphingomyelin due to handling and changing of media (Borchardt et al., 1994). […] Autoradiographs were quantitated using an Epson 1200 c 30 bit scanner and NIH Image software (public domain program developed at the NIH and available from the Internet via FTP from zippy.nimh.nih.gov). […]

L-1210 tumor cells = conditions: l1210 cells; cited from earlier work
[1] = 500 nM chelerythrine 30 minutes prior to 3 Gy

COc1ccc2c(c[n+](C)c3c4cc5c(cc4ccc23)OCO5)c1OC [chelerythrine, 1,2-dimethoxy-12-methyl[1,3]benzodioxolo[5,6-c]phenanthridinium]
cell death, combined treatment (SQ20-B cells; [1]): about 70% | cell survival, combined treatment (SQ20-B cells; [1]): about 30 % of untreated cells | cytotoxicity at 0.5 µM (SQ20-B cells; Homo sapiens, SQ20B, read-out: cell death): ~20% | viability at 0.5 µM (SQ20-B cells; Homo sapiens, SQ20B, 500 nM chelerythrine alone): ~80% | animals with regression to less than 10% of original tumor volume, combined treatment (SQ-20B xenografts; 2 mg/kg chelerythrine x4 plus 50 Gy, day 31): 20/41 | animals with regression to less than 10% of initial tumor volume, chelerythrine only (SQ-20B xenografts; 2 mg/kg x4, day 31): 13/43 | tumor regrowth, volume at day 30 (SQ-20B xenografts; chelerythrine alone, 2 mg/kg days 0, 3, 7, 10): 174 % of the original volume | sphingomyelin mass (WEHI-231 cells): about 55 % of control | IC50 (L-1210 tumor cells): 53 nM
